Cc1cc(Cl)ccc1OCC(=O)O
solubility (mole fraction)
Conditions	278.15 K	283.15 K	288.15 K	293.15 K	298.15 K	303.15 K	308.15 K	313.15 K	318.15 K	323.15 K
in acetone	0.158	0.171	0.188	0.201	0.22	0.239	0.258	0.281	0.301	0.32
in acetonitrile	0.0254	0.0342	0.0458	0.0607	0.0789	0.0968	0.128	0.159	0.196	0.248
in ethanol	0.125	0.151	0.184	0.235	0.3	0.352	0.424	0.497	0.561	0.661
in ethyl acetate	0.101	0.104	0.116	0.127	0.146	0.17	0.192	0.221	0.25	0.299
in ethyl formate	0.0572	0.0618	0.0699	0.0798	0.0914	0.107	0.123	0.14	0.164	0.204
in isobutanol	0.0895	0.111	0.139	0.17	0.214	0.265	0.332	0.39	0.454	0.558
in isopropanol	0.123	0.134	0.154	0.175	0.2	0.237	0.27	0.314	0.364	0.428
in methyl acetate	0.0958	0.106	0.12	0.134	0.149	0.17	0.2	0.234	0.271	0.318
in n-butyl acetate	0.0915	0.0974	0.106	0.122	0.139	0.162	0.185	0.209	0.247	0.296
in n-propanol	0.127	0.138	0.159	0.197	0.238	0.279	0.342	0.405	0.46	0.54
in n-propyl acetate	0.0958	0.103	0.112	0.127	0.144	0.161	0.182	0.211	0.243	0.297
in toluene	0.00841	0.00904	0.011	0.0136	0.0172	0.0214	0.0274	0.0331	0.0419	0.0515
